Inconclusive results and toxic doses are left out.
System: L1210 leukemia ip in BDF1 mice, survival T/C
Experiment: NCI In Vivo Anticancer Drug Screen. Data for tumor model L1210 Leukemia (intraperitoneal) in B6D2F1 (BDF1) mice
Conditions: higher = longer survival
Procedure, shortened: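 In this screen, tumor-bearing mice given compound are compared to those given vehicle, and their survival values are reported as a treated-to-control quotient.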

[1] = endpoint: mean survival time, dose: 50.0 mg/kg/injection, schedule: Q01DX001 (ip), vehicle: saline
[2] = endpoint: mean survival time, dose: 100.0 mg/kg/injection, schedule: Q01DX001 (ip), vehicle: saline
[3] = endpoint: mean survival time, dose: 200.0 mg/kg/injection, schedule: Q01DX001 (ip), vehicle: saline
[4] = endpoint: mean survival time, dose: 200.0 mg/kg/injection, schedule: Q04DX003 (ip), vehicle: saline with Tween-80
[5] = endpoint: mean survival time, dose: 100.0 mg/kg/injection, schedule: Q01DX009 (ip), vehicle: Klucel (hydroxypropylcellulose) (HPC)
[6] = endpoint: mean survival time, dose: 200.0 mg/kg/injection, schedule: Q01DX009 (ip), vehicle: Klucel (hydroxypropylcellulose) (HPC)
[7] = endpoint: mean survival time, dose: 400.0 mg/kg/injection, schedule: Q01DX009 (ip), vehicle: Klucel (hydroxypropylcellulose) (HPC)

SMILES: Cc1c2ccccc2nc(CNC2CCCCC2)[n+]1[O-]
- T/C (endpoint: mean survival time, dose: 12.5 mg/kg/injection, schedule: Q01DX001 (ip), vehicle: saline): 98 % of control
- T/C (endpoint: mean survival time, dose: 25.0 mg/kg/injection, schedule: Q01DX001 (ip), vehicle: saline): 97 % of control
- T/C [1]: 90 % of control

SMILES: O=C1OC(c2ccc(Cl)cc2)=N/C1=C\c1ccc(Cl)cc1
- T/C (endpoint: mean survival time, dose: 100.0 mg/kg/injection, schedule: Q01DX009 (ip), vehicle: saline with Tween-80): 91 % of control
- T/C (endpoint: mean survival time, dose: 200.0 mg/kg/injection, schedule: Q01DX009 (ip), vehicle: saline with Tween-80): 94 % of control
- T/C (endpoint: mean survival time, dose: 400.0 mg/kg/injection, schedule: Q01DX009 (ip), vehicle: saline with Tween-80): 91 % of control

SMILES: O=C(CCCC(=O)NNC(=O)Nc1cccc2ccccc12)NNC(=O)Nc1cccc2ccccc12
- T/C [1]: 98 % of control
- T/C [2]: 96 % of control
- T/C [3]: 87 % of control

SMILES: Cc1cc(C)c(C(=O)c2no[n+]([O-])c2C(=O)c2c(C)cc(C)c(Br)c2C)c(C)c1Br
- T/C [4]: 87 % of control

SMILES: O=[N+]([O-])c1ccc(/C=C\c2ccccc2)cc1
- T/C [5]: 95 % of control
- T/C (endpoint: mean survival time, dose: 100.0 mg/kg/injection, schedule: Q04DX003 (ip), vehicle: Klucel (hydroxypropylcellulose) (HPC)): 98 % of control
- T/C [6]: 97 % of control
- T/C (endpoint: mean survival time, dose: 200.0 mg/kg/injection, schedule: Q04DX003 (ip), vehicle: Klucel (hydroxypropylcellulose) (HPC)): 98 % of control
- T/C [7]: 96 % of control
- T/C (endpoint: mean survival time, dose: 400.0 mg/kg/injection, schedule: Q04DX003 (ip), vehicle: Klucel (hydroxypropylcellulose) (HPC)): 96 % of control

SMILES: S=c1[nH]nc2scnn12
- T/C (endpoint: mean survival time, dose: 50.0 mg/kg/injection, schedule: Q01DX001 (ip), vehicle: carboxymethylcellulose (CMC)): 94 % of control
- T/C (endpoint: mean survival time, dose: 100.0 mg/kg/injection, schedule: Q01DX001 (ip), vehicle: carboxymethylcellulose (CMC)): 94 % of control
- T/C (endpoint: mean survival time, dose: 200.0 mg/kg/injection, schedule: Q01DX001 (ip), vehicle: carboxymethylcellulose (CMC)): 97 % of control
- T/C (endpoint: mean survival time, dose: 400.0 mg/kg/injection, schedule: Q01DX001 (ip), vehicle: carboxymethylcellulose (CMC)): 94 % of control

SMILES: COC(=O)c1ccc(N=NN(C)C)cc1
- T/C (endpoint: median survival time, dose: 65.0 mg/kg/injection, schedule: Q01DX001 (ip), vehicle: steriod suspending solution): 100 % of control
- T/C (endpoint: median survival time, dose: 108.0 mg/kg/injection, schedule: Q01DX001 (ip), vehicle: steriod suspending solution): 110 % of control
- T/C (endpoint: median survival time, dose: 108.0 mg/kg/injection, schedule: Q01DX009 (ip), vehicle: steriod suspending solution): 100 % of control
- T/C (endpoint: median survival time, dose: 180.0 mg/kg/injection, schedule: Q01DX001 (ip), vehicle: steriod suspending solution): 110 % of control
- T/C (endpoint: median survival time, dose: 180.0 mg/kg/injection, schedule: Q04DX003 (ip), vehicle: steriod suspending solution): 150 % of control

SMILES: CCCCNC(C)(C)CS
- T/C (endpoint: mean survival time, dose: 6.25 mg/kg/injection, schedule: Q01DX009 (ip), vehicle: saline): 105 % of control
- T/C (endpoint: mean survival time, dose: 12.5 mg/kg/injection, schedule: Q01DX009 (ip), vehicle: saline): 94 % of control
- T/C (endpoint: mean survival time, dose: 12.5 mg/kg/injection, schedule: Q04DX003 (ip), vehicle: saline): 100 % of control
- T/C (endpoint: mean survival time, dose: 25.0 mg/kg/injection, schedule: Q01DX009 (ip), vehicle: saline): 96 % of control
- T/C (endpoint: mean survival time, dose: 25.0 mg/kg/injection, schedule: Q04DX003 (ip), vehicle: saline): 94 % of control
- T/C (endpoint: mean survival time, dose: 50.0 mg/kg/injection, schedule: Q01DX009 (ip), vehicle: saline): 102 % of control
- T/C (endpoint: mean survival time, dose: 50.0 mg/kg/injection, schedule: Q04DX003 (ip), vehicle: saline): 102 % of control
- T/C (endpoint: mean survival time, dose: 75.0 mg/kg/injection, schedule: Q01DX009 (ip), vehicle: saline): 105 % of control

SMILES: COC(OC)c1cc(=O)[nH]cn1
- T/C [5]: 94 % of control
- T/C [6]: 106 % of control
- T/C [7]: 107 % of control

SMILES: COCC1OC(Nc2ccccc2)C(OC)C(OC)C1OC (configuration not stated)
- T/C (endpoint: mean survival time, dose: 100.0 mg/kg/injection, schedule: Q04DX003 (ip), vehicle: saline with Tween-80): 89 % of control
- T/C [4]: 94 % of control
- T/C (endpoint: mean survival time, dose: 400.0 mg/kg/injection, schedule: Q04DX003 (ip), vehicle: saline with Tween-80): 89 % of control

SMILES: CCOP(=S)(S)OCC.[Ni]
- T/C [1]: 93 % of control
- T/C [2]: 102 % of control
- T/C [3]: 100 % of control
